{"source": "patent US8633209B2", "about": "“Hydrobromide salts of a pyrazolylaminoquinazoline” (Ambit Biosciences Corporation, priority 2010, dated 2014)", "assay_type_in_all_cases": "physicochemical", "key": {"[1]": {"experiment": "Heat and vapor stress (vacuum drying, RH jar) with XRPD analysis of the resulting solid form", "settings": "for XRPD Results after vapor stress: ~94% RH vapor stress at RT for ~3 days; for Result of vacuum drying (Additional Information): temperature and time not stated in Table V", "protocol": "X-ray powder diffraction analyses were performed using an Inel XRG-3000 diffractometer equipped with a CPS (Curved Position Sensitive) detector with a 2θ range of 120°. Real time data were collected using CuKα radiation at a resolution of 0.03° 2θ. The tube voltage and amperage were set to 40 kV and 30 mA, respectively. The monochromator slit was set at 5 mm by 160 μm. […] Samples were prepared into thin-walled glass capillaries for analysis. Each capillary was mounted onto a goniometer head that was motorized to permit spinning of the capillary during data acquisition. The samples were analyzed for 300 seconds. Instrument calibration was performed using a silicon reference standard.\nSamples were placed in a RH jar of specified relative humidity at ambient temperature or elevated temperature for a given amount of time. Samples were placed in heating/vacuum oven at specified temperature for thermal stressing."}, "[2]": {"experiment": "Solubility of the HBr salt of Form A in selected solvents, estimated by solvent addition under ambient conditions", "protocol": "The solubility of the HBr salt of Form A in selected solvents was estimated by solvent addition under ambient conditions to provide preliminary information for the polymorph screen. […] This material is sparingly soluble in methanol, methanol/chloroform (1:1), and methanol/tetrahydrofuran (˜14-20 mg/mL)."}, "[3]": {"experiment": "Moisture sorption/desorption (VTI SGA-100 Vapor Sorption Analyzer, 5% to 95% RH)", "settings": "for Hygroscopicity (moisture sorption data are consistent with): 5% to 95% RH; for Weight gain upon increase in relative humidity: from ~5% to ~95% RH; for Weight loss upon decrease in relative humidity: from ~95% to ~5% RH", "protocol": "Moisture soption/desorption data were collected on a VTI SGA-100 Vapor Sorption Analyzer. Sorption and desorption data were collected over a range of 5% to 95% relative humidity (RH) at 10% RH intervals under a nitrogen purge. Samples were not dried prior to analysis. Equilibrium criteria used for analysis were less than 0.0100% weight change in 5 min, with a maximum equilibration time of 3 hrs if the weight criterion was not met. Data were not corrected for the initial moisture content of the samples. NaCl and PVP were used as calibration standards."}}, "note": "Entries after “also recorded” stand apart in the source; their conditions may differ. Like-named read-outs stand apart in the source and are kept apart here."}
{"smiles": "Cc1cc(Nc2nc(C(O)c3ccc(F)cc3)nc3ccccc23)n[nH]1", "note": "(centres unmarked) [Disordered Form A, (4-fluorophenyl)(4-(5-methyl-1H-pyrazol-3-ylamino)quinazolin-2-yl)methanol]", "values": [{"measurement": "XRPD Results after vapor stress", "setting": "[1]", "result": "Disordered A"}, {"measurement": "XRPD Results after vapor stress", "setting": "[1]; listed as disordered Form A", "result": "remained disordered"}]}
{"smiles": "Cc1cc(Nc2nc(C(O)c3ccc(F)cc3)nc3ccccc23)n[nH]1", "note": "(centres unmarked) [Form A, (4-fluorophenyl)(4-(5-methyl-1H-pyrazol-3-ylamino)quinazolin-2-yl)methanol]", "values": [{"measurement": "solubility", "setting": "[2]; DMF/water (1:1), aqueous with cosolvent or surfactant or cyclodextrin, thermodynamic from solid, solvent DMF/water (1:1), read-out: Solubility", "result": 30000, "unit": "µg/mL"}, {"measurement": "solubility", "setting": "[2]; DMF/water (1:2), aqueous with cosolvent or surfactant or cyclodextrin, thermodynamic from solid, solvent DMF/water (1:2), read-out: Solubility", "result": 4000, "unit": "µg/mL"}, {"measurement": "solubility", "setting": "[2]; DMF/water (1:4), aqueous with cosolvent or surfactant or cyclodextrin, thermodynamic from solid, solvent DMF/water (1:4), read-out: Solubility", "result": "< 2000", "unit": "µg/mL"}, {"measurement": "solubility", "setting": "[2]; DMF/water (1:9), aqueous with cosolvent or surfactant or cyclodextrin, thermodynamic from solid, solvent DMF/water (1:9), read-out: Solubility", "result": "< 2000", "unit": "µg/mL"}, {"measurement": "solubility", "setting": "[2]; MeOH/THF (1:1), organic solvent or mixture, thermodynamic from solid, solvent MeOH/THF (1:1), read-out: Solubility", "result": "14000 to 20000", "unit": "µg/mL"}, {"measurement": "solubility", "setting": "[2]; MeOH/chloroform (1:1), organic solvent or mixture, thermodynamic from solid, solvent MeOH/chloroform (1:1), read-out: Solubility", "result": "14000 to 20000", "unit": "µg/mL"}, {"measurement": "solubility", "setting": "[2]; acetone, organic solvent or mixture, thermodynamic from solid, solvent Acetone, read-out: Solubility", "result": "< 2000", "unit": "µg/mL"}, {"measurement": "solubility", "setting": "[2]; acetonitrile, organic solvent or mixture, thermodynamic from solid, solvent ACN, read-out: Solubility", "result": "< 2000", "unit": "µg/mL"}, {"measurement": "solubility", "setting": "[2]; chloroform, organic solvent or mixture, thermodynamic from solid, solvent Chloroform, read-out: Solubility", "result": "< 2000", "unit": "µg/mL"}, {"measurement": "solubility", "setting": "[2]; dichloromethane, organic solvent or mixture, thermodynamic from solid, solvent DCM, read-out: Solubility", "result": "< 2000", "unit": "µg/mL"}, {"measurement": "solubility", "setting": "[2]; dimethylformamide, organic solvent or mixture, thermodynamic from solid, solvent DMF, read-out: Solubility", "result": "> 114000", "unit": "µg/mL"}, {"measurement": "solubility", "setting": "[2]; ethanol, organic solvent or mixture, thermodynamic from solid, solvent EtOH, read-out: Solubility", "result": "3000 to 7000", "unit": "µg/mL"}, {"measurement": "solubility", "setting": "[2]; ethyl acetate, organic solvent or mixture, thermodynamic from solid, solvent EtOAc, read-out: Solubility", "result": "< 2000", "unit": "µg/mL"}, {"measurement": "solubility", "setting": "[2]; hexafluoroisopropanol, organic solvent or mixture, thermodynamic from solid, solvent HFIPA (hexafluoroisopropanol), read-out: Solubility", "result": "> 128000", "unit": "µg/mL"}, {"measurement": "solubility", "setting": "[2]; isopropyl alcohol, organic solvent or mixture, thermodynamic from solid, solvent IPA, read-out: Solubility", "result": "< 2000", "unit": "µg/mL"}, {"measurement": "solubility", "setting": "[2]; methanol, organic solvent or mixture, thermodynamic from solid, solvent MeOH, read-out: Solubility", "result": "14000 to 20000", "unit": "µg/mL"}, {"measurement": "solubility", "setting": "[2]; nitromethane, organic solvent or mixture, thermodynamic from solid, solvent Nitromethane, read-out: Solubility", "result": "< 2000", "unit": "µg/mL"}, {"measurement": "solubility", "setting": "[2]; solvent ACN", "result": "<2000", "unit": "µg/mL"}, {"measurement": "solubility", "setting": "[2]; solvent Acetone", "result": "<2000", "unit": "µg/mL"}, {"measurement": "solubility", "setting": "[2]; solvent Chloroform", "result": "<2000", "unit": "µg/mL"}, {"measurement": "solubility", "setting": "[2]; solvent DCM", "result": "<2000", "unit": "µg/mL"}, {"measurement": "solubility", "setting": "[2]; solvent DMF", "result": ">114000", "unit": "µg/mL"}, {"measurement": "solubility", "setting": "[2]; solvent DMF/water (1:4)", "result": "<2000", "unit": "µg/mL"}, {"measurement": "solubility", "setting": "[2]; solvent DMF/water (1:9)", "result": "<2000", "unit": "µg/mL"}, {"measurement": "solubility", "setting": "[2]; solvent EtOAc", "result": "<2000", "unit": "µg/mL"}, {"measurement": "solubility", "setting": "[2]; solvent EtOH", "result": 3000, "unit": "µg/mL"}, {"measurement": "solubility", "setting": "[2]; solvent HFIPA (hexafluoroisopropanol)", "result": ">128000", "unit": "µg/mL"}, {"measurement": "solubility", "setting": "[2]; solvent IPA", "result": "<2000", "unit": "µg/mL"}, {"measurement": "solubility", "setting": "[2]; solvent MeOH", "result": 18000, "unit": "µg/mL"}, {"measurement": "solubility", "setting": "[2]; solvent MeOH/THF (1:1)", "result": 14000, "unit": "µg/mL"}, {"measurement": "solubility", "setting": "[2]; solvent MeOH/chloroform (1:1)", "result": 16000, "unit": "µg/mL"}, {"measurement": "solubility", "setting": "[2]; solvent Nitromethane", "result": "<2000", "unit": "µg/mL"}, {"measurement": "solubility", "setting": "[2]; solvent THF", "result": "<2000", "unit": "µg/mL"}, {"measurement": "solubility", "setting": "[2]; solvent Toluene", "result": "<2000", "unit": "µg/mL"}, {"measurement": "solubility", "setting": "[2]; solvent Water", "result": "<2000", "unit": "µg/mL"}, {"measurement": "solubility", "setting": "[2]; t-butanol/water (3:1), organic solvent or mixture, thermodynamic from solid, solvent t-Butanol/water (3:1), read-out: Solubility", "result": 6000, "unit": "µg/mL"}, {"measurement": "solubility", "setting": "[2]; tetrahydrofuran, organic solvent or mixture, thermodynamic from solid, solvent THF, read-out: Solubility", "result": "< 2000", "unit": "µg/mL"}, {"measurement": "solubility", "setting": "[2]; toluene, organic solvent or mixture, thermodynamic from solid, solvent Toluene, read-out: Solubility", "result": "< 2000", "unit": "µg/mL"}, {"measurement": "solubility", "setting": "[2]; water, thermodynamic from solid, solvent Water, read-out: Solubility", "result": "< 2000", "unit": "µg/mL"}, {"measurement": "Hygroscopicity (moisture sorption data are consistent with)", "setting": "[3]", "result": "limited hygroscopic material"}, {"measurement": "Weight loss upon equilibration at ~5% RH", "setting": "[3]", "result": "~0.3", "unit": "wt %"}, {"measurement": "Weight gain upon increase in relative humidity", "setting": "[3]", "result": 1.0, "unit": "wt %"}, {"measurement": "Weight loss upon decrease in relative humidity", "setting": "[3]", "result": "~1.0", "unit": "wt %"}]}
{"smiles": "Cc1cc(Nc2nc(C(O)c3ccc(F)cc3)nc3ccccc23)n[nH]1", "note": "(centres unmarked) [Form B, (4-fluorophenyl)(4-(5-methyl-1H-pyrazol-3-ylamino)quinazolin-2-yl)methanol]", "values": [{"measurement": "Result of vacuum drying (Additional Information)", "setting": "[1]", "result": "primarily consistent with Form A"}, {"measurement": "XRPD Results after vacuum drying", "setting": "[1]; vacuum at ~60° C. for ~1 day", "result": "mixture of Form A with small amount of Form B"}]}
{"smiles": "Cc1cc(Nc2nc(C(O)c3ccc(F)cc3)nc3ccccc23)n[nH]1", "note": "(centres unmarked) [Form C, (4-fluorophenyl)(4-(5-methyl-1H-pyrazol-3-ylamino)quinazolin-2-yl)methanol]", "values": [{"measurement": "Result of vacuum drying (Additional Information)", "setting": "[1]; listed as C", "result": "Forms A and C."}, {"measurement": "XRPD Results after vacuum drying", "setting": "[1]; vacuum at ~80° C. for ~1 day", "result": "mixture of Forms A and C"}]}
{"smiles": "Cc1cc(Nc2nc(C(O)c3ccc(F)cc3)nc3ccccc23)n[nH]1", "note": "(centres unmarked) [Form D, (4-fluorophenyl)(4-(5-methyl-1H-pyrazol-3-ylamino)quinazolin-2-yl)methanol]", "values": [{"measurement": "Result of vacuum drying (Additional Information)", "setting": "[1]; listed as D", "result": "Form A."}, {"measurement": "XRPD Results after vacuum drying", "setting": "[1]; vacuum at ~40° C. for ~3 days", "result": "consistent with Form A"}]}
{"smiles": "Cc1cc(Nc2nc(C(O)c3ccc(F)cc3)nc3ccccc23)n[nH]1", "note": "(centres unmarked) [Form E, (4-fluorophenyl)(4-(5-methyl-1H-pyrazol-3-ylamino)quinazolin-2-yl)methanol]", "values": [{"measurement": "Hygroscopicity (moisture sorption data are consistent with)", "setting": "[3]", "result": "limited hygroscopic material"}, {"measurement": "Weight loss upon equilibration at ~5% RH", "setting": "[3]", "result": "~0.2", "unit": "wt %"}, {"measurement": "Weight gain upon increase in relative humidity", "setting": "[3]", "result": 0.6, "unit": "wt %"}, {"measurement": "Weight loss upon decrease in relative humidity", "setting": "[3]", "result": "~0.6", "unit": "wt %"}, {"measurement": "Result of vacuum drying (Additional Information)", "setting": "[1]", "result": "remained the same after vacuum"}, {"measurement": "XRPD Results after vacuum drying", "setting": "[1]; vacuum at ~60° C. for ~2 days", "result": "No changes were observed in the XRPD pattern; also recorded: physically stable; also recorded: Form E"}]}
{"smiles": "Cc1cc(Nc2nc(C(O)c3ccc(F)cc3)nc3ccccc23)n[nH]1", "note": "(centres unmarked) [Forms A + B, (4-fluorophenyl)(4-(5-methyl-1H-pyrazol-3-ylamino)quinazolin-2-yl)methanol]", "values": [{"measurement": "XRPD Results after vacuum drying", "setting": "[1]; vacuum at ~60° C. for ~1 day", "result": "Form A +"}, {"measurement": "XRPD Results after vacuum drying", "setting": "[1]; vacuum at ~60° C. for ~2 days, listed as Forms A and B", "result": "primarily consistent with Form A with a minor amount of Form B"}]}
